How the values were obtained:
MC38 syngeneic tumors = assay: In vivo efficacy in MC38 syngeneic tumors in C57BL/6J B-h4-1BB humanized mice
Experimental: The MC38 murine colon carcinoma cell line was purchased from Shunran Shanghai Biological Technology Co., Ltd. The cells will be maintained in vitro as monolayer culture in Dulbecco's Modified Eagle's medium (DMEM) supplemented with 10% heat inactivated fetal calf serum, 100 U/mL penicillin and 100 μg/mL streptomycin at 37° C. in an atmosphere of 5% CO2. The tumor cells will be routinely subcultured twice weekly by trypsin-EDTA treatment. Cells growing in an exponential growth phase will be harvested and counted for tumor inoculation. 6-8 week old female C57BL/6J B-h4-1BB humanized mice were subcutaneously injected (in the flank) with MC38 tumor cells (5×10^5) with 0.1 mL PBS for tumor development. Tumor-bearing animals were randomly enrolled into six study groups when the mean tumor size reached approximately 113 mm^3 (Study 1) or 107 mm^3 (Study 2). The test and positive control articles were administrated to the tumor-bearing mice according to predetermined regimens as shown below.
Test articles were formulated in aqueous vehicle (25 mM Histidine, 10% sucrose pH=7) and administered intravenously or intraperitoneally. CD137 monoclonal antibody agonist was administered by intraperitoneal injection in 0.9% saline.
Tumor volume was measured three times a week in two dimensions using a caliper, and the volume was expressed in mm3 using the formula: V=0.5a×b2 where a and b were the long and short diameters of the tumor, respectively. Results are represented by mean and the standard deviation (Mean±SD).
In study 2, mice were sacrificed 21 days after treatment initiation and tumors were harvested for T-cell analysis by flow cytometry. Tumor were cut into small pieces and filtered through a 70 micrometer filter. Lymphocytes were isolated using Histopaque 1083 and resuspended in RPMI 1640 supplemented with 10% fetal bovine serum. Lymphocytes were stained with a cell viability dye (Zombie NIR, Biolegend, #423106) and a panel of antibodies including anti-mouse CD45 (Biolegend, #103138), anti-mouse CD3 (Biolegend, #100328), anti-mouse CD4 (Biolegend, #100438), anti-mouse CD8 (Biolegend, #100759). Stained cells were analysed by Attune N×T Flow Cytometer. T-cell results are expressed as % of CD3+ cells among CD45+ cells. CD8+ T-cell results are expressed as % of CD8+ cells among CD45+CD3+ cells. CD4+ T-cell results are expressed as % of CD4+ cells among CD45+CD3+ cells. Results are represented by mean and the standard deviation (Mean±SD) and the individual values.
Statistical analysis: Data was analyzed using 2way ANOVA or ordinary One-way ANOVA with Dunnett's test for multiple comparisons, and P<0.05 was considered to be statistically significant. Both statistical analysis and biological observations are taken into consideration. ***p<0.001, **p<0.01, *p<0.05.

[1] = test system: Pan T-cells (isolated from human PBMCs); assay: T-cell cytokine release assay; format: cell-based; conditions: anti-CD3 stimulated T cells, 48 hours; FIG. 14
Experimental: Healthy human buffy coat was purchased from the Sylvan N. Goldman Oklahoma Blood Institute and shipped fresh. Peripheral blood mononuclear cells (PBMCs) were isolated by Ficoll density gradient centrifugation. Red blood cells were lysed with ACK (Ammonium-Chloride-Potassium) lysis buffer. Pan T-cells were then isolated from total PBMCs using negative magnetic bead selection (Miltenyi MACS human Pan-T cell isolation kit). Pan T-cells were then plated on anti-CD3 coated 96-well plates (0.5 μg/mL) in culture media (RPMI1640 with 10% FBS) plus or minus compounds. Supernatant from cultures was collected after 24 and 48 hours. Cytokine [i.e., interleukin-2 (IL-2), interferon gamma (IFNγ)] release in supernatant was measured by HTRF assay (CisBio) according to the kit's instructions. HTRF assay plates were read on a Clariostar plate reader (BMG Labtech) at 665 nm and 620 nm. Data was analyzed and extrapolated to a standard curve according to the HTRF kit instruction in Prism and Excel. Cytokine release fold change was calculated by dividing the pg/mL of cytokine detected by background cytokine released (CD3 stimulation alone). Data was graphed in Prism as the mean of replicates with standard deviation error bars.

CD137 [2] = target: T1, CD137 (Homo sapiens, UniProt Q07011); assay: CD137 reporter cell activity washout assay; format: cell-based; parameters: host or cells: Jurkat cells; conditions: 10 nM, exposure 30, 60 or 120 minutes, total 6 hours; FIG. 13
Experimental: Jurkat cells engineered to overexpress CD137 and express a luciferase gene under the NF-κB promoter were purchased from Promega. The reporter cells were incubated with 10 nM of CD137 agonists for the indicated times at 37° C. in RPMI1640 media with 1% FBS. After either 30, 60, or 120 minutes, cells were washed in an excess of culture media and resuspended in 75 μL of fresh media. A no washout condition was also included. All washout conditions were performed in duplicate. Cells then continued to incubate for a total of 6 hours (an additional 5.5, 5, or 4 hours respective to exposure times). After incubation, 75 μL of Bio-Glo reagent (Promega) was added to each well and allowed to equilibrate for 10 minutes at room temperature. Luminescence was read on the Clariostar plate reader (BMG LabTech). Fold induction was calculated by dividing the luminescence signal by background wells (reporter cells with no agonist added). The percent of the maximum fold induction was calculated by dividing the fold induction of the washout time by the fold induction of the no washout condition and multiplying by 100.

CD137 [3] = target: T1, CD137; assay: CD137 Promega reporter cell activity assay (NF-κB luciferase in Jurkat cells)

T1 sequence (Q07011 24-255): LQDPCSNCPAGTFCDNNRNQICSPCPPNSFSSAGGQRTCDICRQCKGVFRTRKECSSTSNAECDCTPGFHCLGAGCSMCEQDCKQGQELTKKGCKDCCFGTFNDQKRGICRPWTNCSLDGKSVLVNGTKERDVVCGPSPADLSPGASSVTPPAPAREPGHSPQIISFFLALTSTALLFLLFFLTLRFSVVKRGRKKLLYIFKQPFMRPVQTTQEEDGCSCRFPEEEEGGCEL

SMILES: CCCC[C@@H]1NC(=O)[C@H](Cc2ccc(O)cc2)NC(=O)[C@@H]2CCCN2C(=O)[C@H](CC(=O)O)NC(=O)[C@H](C)NC(=O)[C@H](Cc2ccccc2)NC(=O)[C@@H]2CSCCC(=O)N3CN(CN(C3)C(=O)CCSC[C@@H](C(=O)N[C@@H](C)C(N)=O)NC1=O)C(=O)CCSC[C@H](NC(C)=O)C(=O)N[C@@H](CC(C)(C)C)C(=O)N1CCC[C@H]1C(=O)N[C@@H](CCCCNC(=O)CCc1cn(CCOCCOCCOCCOCCOCCOCCOCCOCCOCCOCCOCCOCCOCCOCCOCCOCCOCCOCCOCCOCCOCCOCCOCCNC(=O)CCOCC(COCCC(=O)NCCOCCOCCOCCOCCOCCOCCOCCOCCOCCOCCOCCOCCOCCOCCOCCOCCOCCOCCOCCOCCOCCOCCOCCn3cc(CCC(=O)NCCCC[C@@H]4NC(=O)[C@@H]5CCCN5C(=O)[C@H](CC(C)(C)C)NC(=O)[C@@H](NC(C)=O)CSCCC(=O)N5CN6CN(C5)C(=O)CCSC[C@H](NC(=O)[C@H](Cc5ccc(O)cc5)NC(=O)[C@@H]5CCCN5C(=O)[C@@H](C)NC4=O)C(=O)N[C@@H](Cc4ccccc4)C(=O)N[C@@H](C)C(=O)N[C@@H](CC(=O)O)C(=O)N4CCC[C@H]4C(=O)N[C@@H](Cc4ccc(O)cc4)C(=O)N[C@@H](CCCC)C(=O)N[C@H](C(=O)N[C@@H](C)C(N)=O)CSCCC6=O)nn3)(COCCC(=O)NCCOCCOCCOCCOCCOCCOCCOCCOCCOCCOCCOCCOCCOCCOCCOCCOCCOCCOCCOCCOCCOCCOCCOCCn3cc(CCC(=O)NCCCC[C@@H]4NC(=O)[C@@H]5CCCN5C(=O)[C@H](CC(C)(C)C)NC(=O)[C@@H](NC(C)=O)CSCCC(=O)N5CN6CN(C5)C(=O)CCSC[C@H](NC(=O)[C@H](Cc5ccc(O)cc5)NC(=O)[C@@H]5CCCN5C(=O)[C@@H](C)NC4=O)C(=O)N[C@@H](Cc4ccccc4)C(=O)N[C@@H](C)C(=O)N[C@@H](CC(=O)O)C(=O)N4CCC[C@H]4C(=O)N[C@@H](Cc4ccc(O)cc4)C(=O)N[C@@H](CCCC)C(=O)N[C@H](C(=O)N[C@@H](C)C(N)=O)CSCCC6=O)nn3)COCCC(=O)NCCOCCOCCOCCOCCOCCOCCOCCOCCOCCOCCOCCOCCOCCOCCOCCOCCOCCOCCOCCOCCOCCOCCOCCn3cc(CCC(=O)NCCCC[C@@H]4NC(=O)[C@@H]5CCCN5C(=O)[C@H](CC(C)(C)C)NC(=O)[C@@H](NC(C)=O)CSCCC(=O)N5CN6CN(C5)C(=O)CCSC[C@H](NC(=O)[C@H](Cc5ccc(O)cc5)NC(=O)[C@@H]5CCCN5C(=O)[C@@H](C)NC4=O)C(=O)N[C@@H](Cc4ccccc4)C(=O)N[C@@H](C)C(=O)N[C@@H](CC(=O)O)C(=O)N4CCC[C@H]4C(=O)N[C@@H](Cc4ccc(O)cc4)C(=O)N[C@@H](CCCC)C(=O)N[C@H](C(=O)N[C@@H](C)C(N)=O)CSCCC6=O)nn3)nn1)C(=O)N[C@H](C)C(=O)N1CCC[C@H]1C(=O)N[C@@H](Cc1ccc(O)cc1)C(=O)N2 [BCY8945]
- anti-tumour activity (tumor volume), Study 2 (MC38 syngeneic tumors; 30 mg/kg QD × 20, FIG. 8): elicits anti-tumour activity
- T-cell percentage in the tumor tissue (% CD3+ among CD45+) (MC38 syngeneic tumors; Study 2, 21 days of treatment, compared to CD137 monoclonal antibody agonist, FIG. 9): elicits a range of increase in T-cell and CD8+ T-cell percentage
- CD8+ T-cell percentage in the tumor tissue (% CD8+ among CD45+CD3+) (MC38 syngeneic tumors; Study 2, 21 days of treatment, compared to CD137 monoclonal antibody agonist, FIG. 10): elicits a range of increase in T-cell and CD8+ T-cell percentage
- CD4+ T-cell percentage in the tumor tissue (% CD4+ among CD45+CD3+) (MC38 syngeneic tumors; Study 2, 21 days of treatment, compared to CD137 monoclonal antibody agonist, FIG. 11): elicits a range of decease in T-cell percentage
- pro-inflammatory cytokine (IL-2, IFNγ) secretion by T-cells [1]: secrete pro-inflammatory cytokines
- cell activity after washout (CD137 [2]): maintains cell activity after washout
- Average Fold EC50 Improvement relative to BCY7845 (CD137 [3]): 0.13
- Average Relative Fold Induction relative to BCY7845 (CD137 [3]; Average fold induction for BCY7845 = 6.3): 1.23
- CD137 agonism / activation in reporter cells (in words) (CD137 [3]; FIGS. 1 to 3 and 15): activates CD137 on the surface of Jurkat reporter cells
